Marks after values point to notes of the source that are not given here.

The text below walks through data of patent US8907107B2 (Hae Therapeutics Limited, priority 2009, dated 2014).

Data set [1] relates to S. aureus cells. The experiment in a line: Bacterial cell uptake of 21, confocal imaging. Format: cell-based, Staphylococcus aureus. Conditions: gram-positive; 4 μM, 10 minutes. As to the method: (§1) MDA-MB-231 cells were seeded into a 8 well chambered microscopy slide and they were grown overnight in DMEM media at 37° C. in the presence of 5% CO2. The media was then removed and 16 and 17 (5 μM) was added, followed by an incubation period of 1 hour in the dark. Cells were then washed with PBS to remove excess compound. Prior to visualization, cells were fixed in 3.7% formaldehyde solution, co-stained with DAPI and a coverslip was mounted onto the microscopy slide. In a similar way, E. coli cells were incubated with 21 (4 μM) in the dark for 10 minutes. The bacterial cells were washed with PBS and An aliquot of this solution was suspended onto a microscopy slide and allowed to dry. Before imaging, a coverslip was mounted onto the microscopy slide. Images were obtained using an LSM510 META confocal laser scanning microscope equipped with 63× numerical aperture 1.4 objective. DAPI was excited at 364 nm and detected with a band-pass filter 385-470 nm, whilst 16, 17 and 21 were excited at 633 nm and their fluorescence was detected through a 650 nm long-pass filter.
(§2) It was envisaged that the bis-cationic nature of sensitizer 21 would be optimal for uptake into prokaryotic cells thereby broadening their utility. […] Confocal imaging confirmed the binding of 21 to both gram-positive and negative bacterial cells (FIGS. 28a, 28b).

Data set [2] in a line: Fluorescence emission spectra and quantum yield. Format: physicochemical. Conditions: for λmax emiss.: 5 × 10^−7 M, excitation 640 nm, slit widths 5 nm.
Data set [3] can be described thus: UV-visible absorption spectra. Format: physicochemical. Conditions: for λabs: longest-wavelength band, from compound data.
The subject of data set [4] is E. coli cells. The experiment in a line: Bacterial cell uptake of 21, confocal imaging. In kind it is cell-based, Escherichia coli. Conditions: gram-negative; 4 μM, 10 minutes. The protocol:
as §1, §2

The subject of data set [5] is MDA-MB-231 cells. The experiment in a line: Confocal imaging of cell internalization and intracellular on/off switching of 8a. Format: cell-based. An excerpt:
The difference in averaged whole cell red fluorescence taken from off-cells to on-cells was six-fold (FIG. 7).

Data set [6] in a line: physchem. An excerpt: A trace pH=6.0, B trace pH=9.0. Excitation at 640 nm, slit widths 10 nm, 5×10^−7 M in water/CrEL.
FIG. 6. […] Excitation at 640 nm, slit widths 20 nm, 5×10^−7 M in water/CrEL. INaCl=150 mmol/L.

Data set [7] relates to MDA-MB-231 cells. The experiment in a line: Cellular uptake of 16 and 17, CLSM imaging. To be noted: 5 μM; for cellular uptake: 1 hour incubation, DMEM; for subcellular localisation: 1 hour, 3-D reconstruction, DAPI co-staining. Format: cell-based. As to the method: These spectroscopic properties correlate perfectly to the optical requirements of commercially available confocal laser scanning microscopy (CLSM) instruments and small animal optical imaging instruments. Cellular uptake of DMEM solutions of 16 and 17 were utilised to illustrate their potential for in vitro imaging. Compounds 16 and 17 were incubated with MDA-MB-231 cells for 1 hour at 5 μM concentration and the excess dye was removed by washing with PBS before visualisation.
as §1

The mark [8] stands for this setting: 730 nm, excitation 640 nm, 5×10^−7 M in water/CrEL.

As to `CC[N+](C)(CC)Cc1ccc(C2=CC(c3ccc(OC)cc3)=[N+]3C2=Nc2c(-c4ccc(C[N+](C)(CC)CC)cc4)cc(-c4ccc(OC)cc4)n2[B-]3(F)F)cc1.[I-].[I-]` [Compound 21], the “cellular uptake / binding” value in data set [1] and in data set [4] was “sufficient for cellular uptake” in each case. The Φf in data set [2] (CHCl3) is given as 0.22. The λmax emiss. in data set [2] (CHCl3) is 735 nm; in data set [2] (DMEM), 737 nm; in data set [2] (MeOH), 732 nm; in data set [2] (PBS/BSA (4×10^−4 M BSA)), 730 nm. Also, the λmax abs. in data set [3] (CHCl3, 1 × 10^−6 M) was 702 nm; in data set [3] (DMEM, 1 × 10^−6 M) it was 709 nm; in data set [3] (MeOH, 1 × 10^−6 M) it was 702 nm; in data set [3] (PBS/BSA, 1 × 10^−6 M) it was 706 nm.
`O=C(O)CCCn1cc(COc2ccc(C3=NC(=Nc4[nH]c(-c5ccc(O)cc5)cc4-c4ccccc4)C(c4ccccc4)=C3)cc2)nn1` [Compound 8b, 4-[4-(4-[5-[5-(4-Hydroxyphenyl)-3-phenyl-1H-pyrrol-2-ylimino]-4-phenyl-5H-pyrrol-2-yl]-phenoxymethyl)-[1,2,3]triazol-1-yl]butyric acid] gave a λmax abs. in data set [3] (CH3OH, 5 × 10^−6 M) of 687 nm.
The same measure, in the same setting: with `CC(C)(C)OC(=O)NCCn1cc(COc2ccc(C3=NC(=Nc4[nH]c(-c5ccc(O)cc5)cc4-c4ccccc4)C(c4ccccc4)=C3)cc2)nn1` [Compound 8c, {2-[4-(4-{5-[5-(4-Hydroxyphenyl)-3-phenyl-1H-pyrrol-2-ylimino]-4-phenyl-5H-pyrrol-2-yl}-phenoxymethyl)-[1,2,3]triazol-1-yl]ethyl}carbamic acid t-butyl ester] the figure was 687 nm.
By pKa is commonly meant the pH at which an ionisable group is half protonated. Low readings indicate a stronger acid or weaker base, high ones a weaker acid or stronger base. Consider `OC[C@H]1O[C@@H](n2cc(COc3ccc(-c4cc(-c5ccccc5)c5n4[B-](F)(F)[N+]4=C(c6ccc(O)cc6)C=C(c6ccccc6)C4=N5)cc3)nn2)[C@H](O)[C@@H](O)[C@H]1O` [Compound 8a], for which the “intracellular emission after addition of basic buffer” value in data set [5] (aqueous carbonate buffer pH 8.0) is given as “almost complete quenching”. The “subcellular localisation of red emission” value in data set [5] (incubation 1 h, DAPI co-staining) is recorded as “localised to the cytosol”. In data set [5] (pH 6.6 buffer), the “intracellular emission after addition of acidic buffer” value is on record as “re-established”. Further, in data set [5] (pH 8.0 versus pH 6.6 buffer), the “difference in averaged whole cell red fluorescence from off-cells to on-cells” value is listed as “six-fold”. In data set [6], this compound displayed a pKa of 6.9. Besides, in data set [6] (setting [8]), the “fluorescence intensity difference between pH 6.6 and 8” value is given as 6 fold; the “fluorescence intensity difference from pH 6.1 to 7.2” value is “greater than 2 fold”. The same compound had a λmax abs. in data set [3] (CH3OH, 5 × 10^−6 M) of 687 nm.
For the compound `O=C(O)COc1ccc(C2=[N+]3C(=Nc4c(-c5ccccc5)cc(-c5ccc(OCC(=O)O)cc5)n4[B-]3(F)F)C(c3ccccc3)=C2)cc1` [Compound 16], in data set [7], the cellular uptake result was “efficiently taken up by cells”. Moreover, the subcellular localisation result in data set [7] is reported as “primarily to the cytoplasm”. The Φf in data set [2] (CHCl3) was 0.30. The λmax emiss. in data set [2] (DMEM) was 722 nm; in data set [2] (MeOH), 715 nm; in data set [2] (PBS/BSA (4×10^−4 M BSA)), 718 nm. Besides, the λmax abs. in data set [3] (CHCl3, 1 × 10^−6 M) is given as 681 nm; in data set [3] (DMEM, 1 × 10^−6 M), 694 nm; in data set [3] (MeOH, 1 × 10^−6 M), 681 nm; in data set [3] (PBS/BSA, 1 × 10^−6 M) it was 692 nm.
Take `CCN(CC)Cc1ccc(C2=CC(c3ccc(OC)cc3)=[N+]3C2=Nc2c(-c4ccc(CN(CC)CC)cc4)cc(-c4ccc(OC)cc4)n2[B-]3(F)F)cc1` [Compound 20]: the ε in data set [3] (CHCl3, at 691 nm) is given as 76,000 Lmol^−1 cm^−1. Moreover, in data set [3] (CHCl3), the λabs came to 691 nm.
For `O=S(=O)(O)CCCOc1ccc(C2=[N+]3C(=Nc4c(-c5ccccc5)cc(-c5ccc(OCCCS(=O)(=O)O)cc5)n4[B-]3(F)F)C(c3ccccc3)=C2)cc1` [Compound 17], in data set [7], the cellular uptake result was “efficiently taken up by cells”. In addition, the subcellular localisation result in data set [7] was “primarily to the cytoplasm”. Also, in data set [2] (CHCl3), the Φf amounted to 0.31. The λmax emiss. in data set [2] (CHCl3) was 726 nm; in data set [2] (DMEM) it was 728 nm; in data set [2] (PBS/BSA (4×10^−4 M BSA)) it was 718 nm. Besides, the λmax abs. in data set [3] (CHCl3, 1 × 10^−6 M) is recorded as 694 nm; in data set [3] (CHCl3, 1 × 10^−6 M, as tetra-butylammonium salt) it was 694^e nm; in data set [3] (DMEM, 1 × 10^−6 M), 694 nm; in data set [3] (MeOH, 1 × 10^−6 M), 687 nm; in data set [3] (PBS/BSA, 1 × 10^−6 M) it was 692 nm.
Regarding `COCCOCCOCCOc1ccc(-c2cc(-c3ccccc3)c3n2[B-](F)(F)[N+]2=C(c4ccc(OCCNC(=O)OC(C)(C)C)cc4)C=C(c4ccccc4)C2=N3)cc1` [Compound 9], the “fluorescence quantum yield Φf” value in data set [2] (CHCl3, 1 as standard) is recorded as 0.36. The λemiss in data set [2] (CHCl3, from compound data) amounted to 717 nm. The compound further displayed a Φf in data set [2] (ethanol, 1 used as standard) of 0.23. In data set [2] (ethanol), this compound returned a λmax emiss. of 714 nm. The “ε×10^−3” value in data set [3] (CHCl3, at 689 nm) turned out to be 87.1. Moreover, the λabs in data set [3] (CHCl3) came out at 689 nm.
